Laboratory results taken from PubChem BioAssay (NCI).
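All cell lines were grown in 96-well plates and treated with compound for 48 hours. TGI is the concentration that stops growth completely.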

What was measured:
Experiment in all cases: DTP human tumour cell line panel, 48 h
786-0 renal = tested on: 786-0 renal
A498 renal = tested on: A498 renal
A549 NSCLC = tested on: A549 NSCLC
ACHN renal = tested on: ACHN renal
BT-549 breast = tested on: BT-549 breast
CAKI-1 renal = tested on: CAKI-1 renal
CCRF-CEM leukemia = tested on: CCRF-CEM leukemia
COLO 205 colon = tested on: COLO 205 colon
DU-145 prostate = tested on: DU-145 prostate
EKVX NSCLC = tested on: EKVX NSCLC
HCC-2998 colon = tested on: HCC-2998 colon
HCT-116 colon = tested on: HCT-116 colon
HCT-15 colon = tested on: HCT-15 colon
HL-60(TB) leukemia = tested on: HL-60(TB) leukemia
HOP-62 NSCLC = tested on: HOP-62 NSCLC
HOP-92 NSCLC = tested on: HOP-92 NSCLC
HS 578T breast = tested on: HS 578T breast
HT29 colon = tested on: HT29 colon
IGROV1 ovarian = tested on: IGROV1 ovarian
K-562 leukemia = tested on: K-562 leukemia
KM12 colon = tested on: KM12 colon
LOX IMVI melanoma = tested on: LOX IMVI melanoma
M14 melanoma = tested on: M14 melanoma
MALME-3M melanoma = tested on: MALME-3M melanoma
MCF7 breast = tested on: MCF7 breast
MDA-MB-231 breast = tested on: MDA-MB-231 breast
MDA-MB-435 = tested on: MDA-MB-435
MDA-N = tested on: MDA-N
MOLT-4 leukemia = tested on: MOLT-4 leukemia
NCI-H226 lung = tested on: NCI-H226 lung
NCI-H23 lung = tested on: NCI-H23 lung
NCI-H460 lung = tested on: NCI-H460 lung
NCI-H522 lung = tested on: NCI-H522 lung
NCI/ADR-RES ovarian = tested on: NCI/ADR-RES ovarian
OVCAR-3 ovarian = tested on: OVCAR-3 ovarian
OVCAR-4 ovarian = tested on: OVCAR-4 ovarian
OVCAR-5 ovarian = tested on: OVCAR-5 ovarian
OVCAR-8 ovarian = tested on: OVCAR-8 ovarian
PC-3 prostate = tested on: PC-3 prostate
RPMI-8226 leukemia = tested on: RPMI-8226 leukemia
RXF 393 renal = tested on: RXF 393 renal
SF-268 CNS = tested on: SF-268 CNS
SK-MEL-2 melanoma = tested on: SK-MEL-2 melanoma
SK-MEL-28 melanoma = tested on: SK-MEL-28 melanoma
SK-MEL-5 melanoma = tested on: SK-MEL-5 melanoma
SK-OV-3 ovarian = tested on: SK-OV-3 ovarian
SN12C renal = tested on: SN12C renal
SNB-19 CNS = tested on: SNB-19 CNS
SNB-75 CNS = tested on: SNB-75 CNS
SW-620 colon = tested on: SW-620 colon
T-47D breast = tested on: T-47D breast
U251 CNS = tested on: U251 CNS
UACC-257 melanoma = tested on: UACC-257 melanoma
UACC-62 melanoma = tested on: UACC-62 melanoma
SF-295 CNS = tested on: SF-295 CNS
TK-10 renal = tested on: TK-10 renal
UO-31 renal = tested on: UO-31 renal
SF-539 CNS = tested on: SF-539 CNS

## C[C@]12CC(c3ccccc3O1)C(C(N)=O)C(=O)N2 (some centres not stated)
786-0 renal
  TGI: > 100 µM
A498 renal
  TGI: > 100 µM
A549 NSCLC
  TGI: > 100 µM
ACHN renal
  TGI: > 100 µM
BT-549 breast
  TGI: > 100 µM
CAKI-1 renal
  TGI: > 100 µM
CCRF-CEM leukemia
  TGI: > 100 µM
COLO 205 colon
  TGI: > 100 µM
DU-145 prostate
  TGI: > 100 µM
EKVX NSCLC
  TGI: > 100 µM
HCC-2998 colon
  TGI: > 100 µM
HCT-116 colon
  TGI: > 100 µM
HCT-15 colon
  TGI: > 100 µM
HL-60(TB) leukemia
  TGI: > 100 µM
HOP-62 NSCLC
  TGI: > 100 µM
HOP-92 NSCLC
  TGI: > 100 µM
HS 578T breast
  TGI: > 100 µM
HT29 colon
  TGI: > 100 µM
IGROV1 ovarian
  TGI: > 100 µM
K-562 leukemia
  TGI: > 100 µM
KM12 colon
  TGI: > 100 µM
LOX IMVI melanoma
  TGI: > 100 µM
M14 melanoma
  TGI: > 100 µM
MALME-3M melanoma
  TGI: > 100 µM
MCF7 breast
  TGI: > 100 µM
MDA-MB-231 breast
  TGI: > 100 µM
MDA-MB-435
  TGI: > 100 µM
MDA-N
  TGI: > 100 µM
MOLT-4 leukemia
  TGI: > 100 µM
NCI-H226 lung
  TGI: > 100 µM
NCI-H23 lung
  TGI: > 100 µM
NCI-H460 lung
  TGI: > 100 µM
NCI-H522 lung
  TGI: > 100 µM
NCI/ADR-RES ovarian
  TGI: > 100 µM
OVCAR-3 ovarian
  TGI: > 100 µM
OVCAR-4 ovarian
  TGI: > 100 µM
OVCAR-5 ovarian
  TGI: > 100 µM
OVCAR-8 ovarian
  TGI: > 100 µM
PC-3 prostate
  TGI: > 100 µM
RPMI-8226 leukemia
  TGI: > 100 µM
RXF 393 renal
  TGI: > 100 µM
SF-268 CNS
  TGI: > 100 µM
SK-MEL-2 melanoma
  TGI: > 100 µM
SK-MEL-28 melanoma
  TGI: > 100 µM
SK-MEL-5 melanoma
  TGI: > 100 µM
SK-OV-3 ovarian
  TGI: > 100 µM
SN12C renal
  TGI: > 100 µM
SNB-19 CNS
  TGI: > 100 µM
SNB-75 CNS
  TGI: > 100 µM
SW-620 colon
  TGI: > 100 µM
T-47D breast
  TGI: > 100 µM
U251 CNS
  TGI: > 100 µM
UACC-257 melanoma
  TGI: > 100 µM
UACC-62 melanoma
  TGI: > 100 µM

## OCCNc1ncnc2nc[nH]c12
786-0 renal
  TGI: > 100 µM
A498 renal
  TGI: > 100 µM
A549 NSCLC
  TGI: > 100 µM
ACHN renal
  TGI: > 100 µM
BT-549 breast
  TGI: > 100 µM
CAKI-1 renal
  TGI: > 100 µM
COLO 205 colon
  TGI: > 100 µM
DU-145 prostate
  TGI: > 100 µM
EKVX NSCLC
  TGI: > 100 µM
HCC-2998 colon
  TGI: > 100 µM
HCT-116 colon
  TGI: > 100 µM
HCT-15 colon
  TGI: > 100 µM
HL-60(TB) leukemia
  TGI: > 100 µM
HOP-62 NSCLC
  TGI: > 100 µM
HOP-92 NSCLC
  TGI: > 100 µM
HS 578T breast
  TGI: > 100 µM
HT29 colon
  TGI: > 100 µM
IGROV1 ovarian
  TGI: > 100 µM
K-562 leukemia
  TGI: > 100 µM
KM12 colon
  TGI: > 100 µM
LOX IMVI melanoma
  TGI: > 100 µM
M14 melanoma
  TGI: > 100 µM
MALME-3M melanoma
  TGI: > 100 µM
MCF7 breast
  TGI: > 100 µM
MDA-MB-231 breast
  TGI: > 100 µM
MDA-MB-435
  TGI: > 100 µM
MDA-N
  TGI: > 100 µM
MOLT-4 leukemia
  TGI: > 100 µM
NCI-H226 lung
  TGI: > 100 µM
NCI-H23 lung
  TGI: > 100 µM
NCI-H460 lung
  TGI: > 100 µM
NCI-H522 lung
  TGI: > 100 µM
NCI/ADR-RES ovarian
  TGI: > 100 µM
OVCAR-3 ovarian
  TGI: > 100 µM
OVCAR-4 ovarian
  TGI: > 100 µM
OVCAR-5 ovarian
  TGI: > 100 µM
OVCAR-8 ovarian
  TGI: > 100 µM
PC-3 prostate
  TGI: > 100 µM
RPMI-8226 leukemia
  TGI: > 100 µM
RXF 393 renal
  TGI: > 100 µM
SF-268 CNS
  TGI: > 100 µM
SF-295 CNS
  TGI: > 100 µM
SK-MEL-2 melanoma
  TGI: > 100 µM
SK-MEL-28 melanoma
  TGI: > 100 µM
SK-MEL-5 melanoma
  TGI: > 100 µM
SK-OV-3 ovarian
  TGI: > 100 µM
SN12C renal
  TGI: > 100 µM
SNB-19 CNS
  TGI: > 100 µM
SNB-75 CNS
  TGI: > 100 µM
SW-620 colon
  TGI: > 100 µM
T-47D breast
  TGI: > 100 µM
TK-10 renal
  TGI: > 100 µM
U251 CNS
  TGI: > 100 µM
UACC-257 melanoma
  TGI: > 100 µM
UACC-62 melanoma
  TGI: > 100 µM
UO-31 renal
  TGI: > 100 µM

## O=C(C(=NC12CC3CC(CC(C3)C1)C2)NNc1ccc([N+](=O)[O-])cc1[N+](=O)[O-])C(Br)C(=O)c1ccccc1 (configuration not stated)
786-0 renal
  TGI: > 10 µM
A498 renal
  TGI: 6.96 µM
A549 NSCLC
  TGI: > 10 µM
ACHN renal
  TGI: > 10 µM
BT-549 breast
  TGI: > 10 µM
CAKI-1 renal
  TGI: > 10 µM
CCRF-CEM leukemia
  TGI: 7.67 µM
COLO 205 colon
  TGI: 4.23 µM
DU-145 prostate
  TGI: > 10 µM
EKVX NSCLC
  TGI: 9.64 µM
HCC-2998 colon
  TGI: > 10 µM
HCT-116 colon
  TGI: 8.78 µM
HCT-15 colon
  TGI: > 10 µM
HL-60(TB) leukemia
  TGI: 5.57 µM
HOP-62 NSCLC
  TGI: 6.84 µM
HOP-92 NSCLC
  TGI: 6.66 µM
HS 578T breast
  TGI: > 10 µM
HT29 colon
  TGI: > 10 µM
IGROV1 ovarian
  TGI: > 10 µM
K-562 leukemia
  TGI: > 10 µM
KM12 colon
  TGI: > 10 µM
LOX IMVI melanoma
  TGI: 6.25 µM
M14 melanoma
  TGI: 6.84 µM
MALME-3M melanoma
  TGI: > 10 µM
MCF7 breast
  TGI: > 10 µM
MDA-MB-231 breast
  TGI: 6.13 µM
MDA-MB-435
  TGI: > 10 µM
MDA-N
  TGI: > 10 µM
MOLT-4 leukemia
  TGI: 9.72 µM
NCI-H226 lung
  TGI: 8.31 µM
NCI-H23 lung
  TGI: 8.4 µM
NCI-H460 lung
  TGI: > 10 µM
NCI/ADR-RES ovarian
  TGI: > 10 µM
OVCAR-3 ovarian
  TGI: 8.83 µM
OVCAR-4 ovarian
  TGI: > 10 µM
OVCAR-5 ovarian
  TGI: > 10 µM
OVCAR-8 ovarian
  TGI: > 10 µM
PC-3 prostate
  TGI: 9.87 µM
RPMI-8226 leukemia
  TGI: 6.38 µM
RXF 393 renal
  TGI: 8.31 µM
SF-268 CNS
  TGI: > 10 µM
SF-295 CNS
  TGI: > 10 µM
SF-539 CNS
  TGI: 8.73 µM
SK-MEL-2 melanoma
  TGI: > 10 µM
SK-MEL-28 melanoma
  TGI: > 10 µM
SK-MEL-5 melanoma
  TGI: 2.5 µM
SK-OV-3 ovarian
  TGI: 9.04 µM
SN12C renal
  TGI: > 10 µM
SNB-19 CNS
  TGI: > 10 µM
SNB-75 CNS
  TGI: 7.38 µM
SW-620 colon
  TGI: > 10 µM
T-47D breast
  TGI: 9.29 µM
TK-10 renal
  TGI: > 10 µM
U251 CNS
  TGI: > 10 µM
UACC-257 melanoma
  TGI: 6.28 µM
UACC-62 melanoma
  TGI: > 10 µM
UO-31 renal
  TGI: > 10 µM
